Molecules are shown by their SMILES.

The test system of the first experiment is catecholamine transport. In words: Catecholamine (3H-dopamine) transport in chromaffin granule membranes. Format: biochemical, bovine. The note with it: 1 µM reserpine. As to the method:
(§1) Chromaffin granule membranes were prepared from adrenal glands collected from slaughtered cattle according to Reference A (Nathan Nelson et al., 1988, Chromaffin Granule Proton Pump, Methods in Enzymology, 157, 619-633). Chromaffin granule membranes prepared by sucrose density gradient centrifugation were suspended in 2 ml of SME buffer (20 mM MOPS-tris (pH 7.0), 0.3 M sucrose, 5 mM EDTA, 10 µg/ml leupeptin, and 10 µg/ml pepstatin) + 25% glycerol, and the resulting suspension was aliquoted and stored at -80°C. Under these conditions, the ATP transport activity, the V-ATPase activity, and the catecholamine transport activity remain fully active for at least one year.
A catecholamine transport inhibition experiment was carried out in the same manner as the ATP transport experiment except that the experiment used a measurement liquid containing 20 mM MOPS-tris (pH 7.0), 0.1 M sucrose, 0.1 M potassium chloride, 5 mM magnesium acetate, and about 5 µg of chromaffin granule membranes. To 0.5 ml of the measurement liquid, 2 mM ATP was added, and the resulting mixture was incubated at 30°C for about 5 minutes, followed by addition of^3 [H]-dopamine thereto to a final concentration of 10 µM. After further incubation at 30°C for 15 minutes, 0.2 ml of the reaction liquid was subjected to suction filtration through a Millipore MCE membrane filter with a pore size of 0.45 µm, and the radioactivity on the filter was measured (N = 3). The substrate, ^3[H]-dopamine, was prepared by mixing 3,4-[RING-2,5,6-^3H]dihydroxyphenylethylamine (dopamine) (30 Ci/mmol) (manufactured by New England Nuclear) with dopamine hydrochloride (manufactured by LKT Laboratories) such that a final concentration of 0.1 mM was achieved during the use.
(§2) Chromaffin granule membrane vesicles were prepared in the same manner as in Example 5, and uptake of radiolabeled ATP into the vesicles was measured. Transport activity of catecholamine (dopamine) and ATP-dependent proton transport by V-ATPase were also measured in the same manner as in Example 5.
As to `COC(=O)[C@H]1[C@H]2C[C@@H]3c4[nH]c5cc(OC)ccc5c4CCN3C[C@H]2C[C@@H](OC(=O)c2cc(OC)c(OC)c(OC)c2)[C@@H]1OC` [reserpine], the ATP-dependent dopamine transport entry was “almost completely blocked”.

Another experiment relates to ATP transport activity in isolated chromaffin granule membranes. In words: ATP transport (3H-ATP uptake) in chromaffin granule membrane vesicles. In kind it is biochemical, bovine. As to conditions: PEP analogs. The method, then: as §1
An ATP transport inhibition experiment for the chromaffin granule membrane was carried out according to Reference B (Yoshinori Moriyama et al., 2022, Is the vesicular nucleotide transporter a molecular target of eicosapentaenoic acid?, Frontiers in Pharmacology, 103389). About 20 µg of chromaffin granule membranes were added to 0.5 ml of measurement buffer (20 mM MOPS-tris (pH 7.0), 0.3 M sucrose, 5 mM potassium chloride, 5 mM magnesium acetate, 5 mM creatine phosphate, 10 units of creatine kinase, and 1 mM ^3[H]-ATP [15 KBq/assay]), followed by incubation at 30°C for 1 hour. Through a Millipore MCE membrane filter with a pore size 0.45 µm, 0.2 ml of the reaction liquid was filtered by suction. Thereafter, the filter was washed with 10 ml of 20 mM MOPS-tris (pH 7.0), 0.3 M sucrose, 5 mM potassium chloride, and 5 mM magnesium acetate, and dissolved in 10 ml of Clear-sol II (manufactured by Nacalai Tesque, Inc.). The radioactivity was then measured using a liquid scintillation counter (N = 3).
The reaction was initiated by adding 50 mM ^3[H]-ATP to a final concentration of 1 mM. The 50 mM ^3[H]-ATP was prepared by mixing an ATP-tris solution (manufactured by Sigma-Aldrich) with [2,8-^3H] adenosine triphosphate tetrasodium salt (26.0 Ci/mmol) (manufactured by New England Nuclear). PEP was used as a test reagent, and pyruvic acid was used as a negative control. Five minutes before the addition of ATP, PEP or pyruvic acid, as a solution in 20 mM MOPS-tris (pH 7.0), 0.3 M sucrose, 5 mM potassium chloride, and 5 mM magnesium acetate, was added to the measurement liquid to a final PEP concentration of 0.02, 0.05, 0.1, 0.2, 0.4, or 1 mM, or to a final pyruvic acid concentration of 0.5 or 1 mM.
as §2
Regarding `O=C(O)C(O)COP(=O)(O)O` (stereo not drawn) [3-phosphoglyceric acid], the IC50 came to 450 µM.

Turning to `O=C(O)[C@@H](CO)OP(=O)(O)O` [D-2-phosphoglyceric acid], the half-maximal inhibitory concentration (IC50) amounted to 180 µM.

Molecule `O=C(O)[C@H](CO)OP(=O)(O)O` [L-2-phosphoglyceric acid] had an IC50 of 180 µM.

Still in this experiment, the particulars now being: concentration not given.
Turning to `C[C@H](O)C(=O)O` [L-lactic acid], the “inhibitory activity on ATP transport” value is “no inhibitory activity”.

As to `NC(=O)c1ccc[n+]([C@@H]2O[C@H](COP(=O)([O-])OP(=O)(O)OC[C@H]3O[C@@H](n4cnc5c(N)ncnc54)[C@H](O)[C@@H]3O)[C@@H](O)[C@H]2O)c1` [NAD+], the “inhibitory activity on ATP transport” value is “no inhibitory activity”.

As to `CC(=O)SCCNC(=O)CCNC(=O)[C@H](O)C(C)(C)COP(=O)(O)OP(=O)(O)OC[C@H]1O[C@@H](n2cnc3c(N)ncnc32)[C@H](O)[C@@H]1OP(=O)(O)O` [acetyl-CoA], the “inhibitory activity on ATP transport” value was “no inhibitory activity”.

`O=C(O)CC(O)(CC(=O)O)C(=O)O` [citric acid]: the “inhibitory activity on ATP transport” value is “no inhibitory activity”.

Consider `O=C(CO)[C@@H](O)[C@H](O)[C@H](O)COP(=O)(O)O` [fructose-6-phosphate], for which the “inhibitory activity on ATP transport” value is “no inhibitory activity”.

For `O=C[C@H](O)[C@@H](O)[C@H](O)[C@H](O)COP(=O)(O)O` [glucose-6-phosphate], the “inhibitory activity on ATP transport” value is “no inhibitory activity”.

Consider `O=C(O)CC(O)C(=O)O` (stereo not drawn) [malic acid], for which the “inhibitory activity on ATP transport” value is reported as “no inhibitory activity”.

For the molecule `O=C(O)CC(=O)C(=O)O` [oxaloacetic acid], the “inhibitory activity on ATP transport” value is listed as “no inhibitory activity”.
